Test results taken from ChEMBL document CHEMBL4613277, “Improving the Potency of N-Aryl-2,5-dimethylpyrroles against Multidrug-Resistant and Intracellular Mycobacteria” (ACS Med Chem Lett, 2020).
In brackets after ≈: the same amount, converted by molar mass.

Experiments:
[1] = system: Mycobacterium tuberculosis; test: Antimycobacterial activity against Mycobacterium bovis BCG; type: functional; conditions: variant bovis BCG
[2] = system: Mycobacterium tuberculosis; test: Antimycobacterial activity against Mycobacterium bovis BCG assessed as reduction in bacterial growth incubated for 48 hrs by HT-SPOTi assay; type: functional; conditions: variant bovis BCG

## Cc1cc(CNC2CCCCC2)c(C)n1-c1ccc(Cl)cc1
[1]
  MIC: 0.4 µg/mL (≈ 1.26 µM)

## Cc1cc(CNCc2ccccc2)c(C)n1-c1ccc(Cl)cc1
[1]
  MIC: 0.5 µg/mL (≈ 1.54 µM)

## Cc1cc(CNCc2ccccc2)c(C)n1-c1ccc(F)cc1
[1]
  MIC: 0.5 µg/mL (≈ 1.62 µM)

## COc1ccc(-n2c(C)cc(CNC3CCCCC3)c2C)cc1
[1]
  MIC: 0.25 µg/mL (≈ 0.8 µM)

## Cc1cc(CNCc2ccccc2)c(C)n1-c1ccccc1C(F)(F)F
[1]
  MIC: 1 µg/mL (≈ 2.79 µM)

## Cc1cc(CNC2CCCCC2)c(C)n1-c1cc(Cl)cc(Cl)c1
[1]
  MIC: 0.5 µg/mL (≈ 1.42 µM)

## Cc1cc(CNC(C)c2ccccc2)c(C)n1-c1ccc(Cl)cc1 (stereo not given)
[1]
  MIC: 0.5 µg/mL (≈ 1.48 µM)

## Cc1cc(CN[C@H]2C[C@@H]3CC[C@H]2C3)c(C)n1-c1ccc(Cl)cc1
[1]
  MIC: 0.25 µg/mL (≈ 0.76 µM)

## Cc1cc(CNC2CCCCC2)c(C)n1-c1ccccc1C(F)(F)F
[1]
  MIC: 2 µg/mL (≈ 5.71 µM)

## Cc1cc(CNCc2ccccc2)c(C)n1-c1ccc(C(C)C)cc1
[1]
  MIC: 1 µg/mL (≈ 3.01 µM)

## Cc1ccc(C)c(-n2c(C)cc(CNC3CCCCC3)c2C)c1
[1]
  MIC: 0.5 µg/mL (≈ 1.61 µM)

## Cc1cc(CNC2CCCCC2)c(C)n1-c1ccccc1F
[1]
  MIC: 0.5 µg/mL (≈ 1.66 µM)

## Cc1cc(CNC2CCCCC2)c(C)n1-c1ccc(C(C)C)cc1
[1]
  MIC: 0.25 µg/mL (≈ 0.77 µM)

## Cc1cc(CNC2CCCCC2)c(C)n1-c1ccc(C#N)cc1
[1]
  MIC: 1 µg/mL (≈ 3.25 µM)

## Cc1cc(CNC2CCCCC2)c(C)n1-c1ccc(F)cc1
[1]
  MIC: 0.5 µg/mL (≈ 1.66 µM)

## Cc1cc(CNCC2CCCCC2)c(C)n1-c1ccc(Cl)cc1
[1]
  MIC: 0.125 µg/mL (≈ 0.378 µM)
[2]
  MIC: 1.95 µg/mL (≈ 5.89 µM)

## Cc1cc(CNCCNc2ccccc2)c(C)n1-c1ccc(Cl)cc1
[1]
  MIC: 1 µg/mL (≈ 2.83 µM)

## Cc1ccc(C)c(-n2c(C)cc(CNCc3ccccc3)c2C)c1
[1]
  MIC: 2 µg/mL (≈ 6.28 µM)

## Cc1cc(CNCc2ccccc2)c(C)n1-c1cc(Cl)cc(Cl)c1
[1]
  MIC: 1 µg/mL (≈ 2.78 µM)
